Assays:
[1] = system: HeLa, MDA-MB231 and DLD-1 cancer cell lines; assay: Sensitization to cancer cell death by combined treatment with demethylating agent and anticancer drug; format: cell-based
Procedure: (§1) Cell viability was determined using tetrazolium dye colorimetric test (MTT assay) at 570 nm.
The same number of HeLa, MDA-MB231 and DLD-1 cancer cell lines not treated with a drug were also grown, and then treated with the same concentration of an anticancer drug. The effect of the demethylating agent on sensitization to cell death was analyzed.

T47D cells = assay: Viability (MTT) of RIP3-silenced T47D cells treated with anticancer drug; format: cell-based, human; conditions: 48 hours; for anticancer drug resistance (MTT assay): T47D RIP3-knocked down test group, versus control group; for cell death (MTT assay): T47D control group
Procedure: The T47D cell line which is a breast cancer cell line expressing RIP3 was used to identify the role of RIP3 in various kinds of cancel. First, the shRIP3 T47D cell line was prepared in the same manner as described in Example 7.
In order to examine whether RIP3 increases anticancer drug sensitivity in T47D breast cancer cells, an MTT assay was performed. A control group and a RIP3-knocked down test group were incubated with doxorubicin, etoposide and taxol at the concentrations shown in FIG. 15 (right) for 48 hours.

[2] = system: RIP3 expression in HeLa cervical cell line and DLD-1 colorectal cancer cell line; assay: RIP3 expression at mRNA or protein level in HeLa and DLD-1 cells treated with demethylating agent; format: cell-based; conditions: HeLa and DLD-1 cell lines which expressed no RIP3
[3] = system: RIP3 expression in RIP3-silenced cancer cell lines; assay: RIP3 expression in RIP3-silenced cancer cell lines treated with demethylating agent (Western blotting)
Procedure: Cells were lysed in M2 buffer. Equal amounts of cell extracts were analyzed by SDS-PAGE and immunoblotting, and visualized by enhanced chemiluminescence (ECL, Amersham). A variety of RIP3-silenced cancer cell lines (including liver cancer, cervical cancer, prostate cancer, brain cancer, ovarian cancer, skin cancer, lung cancer, breast cancer, blood cancer, colorectal cancer, and bladder cancer) were grown to a confluence of 10-20%, and then treated twice with 5-AD for 4 days, after which RIP3 expression patterns in the cell lines were analyzed by a Western blotting technique.

[4] = system: non-target cell line and shRIP3 cell line; assay: Cell viability (MTT) of non-target and shRIP3 cell lines after combined treatment with demethylating agent and anticancer drug; format: cell-based, human
Procedure: (§2) A MISSION short-hairpin RNA (shRNA) plasmid that targets the coding region or 3′ UTR of hRIP3 mRNA (NM_006871) or a non-target control sequence (NM-027088) were obtained from Sigma-Aldrich. A Lentivirus plasmid was transfected into 293T cells (System Biosciences, LV900A-1) using Lipofectamine 2000 (Invitrogen, 11668019). Pseudoviral particles were collected at 2 days after transfection of the Lentivirus plasmid and infected into various cancer cells in the presence of polybrene (10 μg/mL).
as §1
(§3) Since a demethylating agent (5-AD or 5-AZA) is not a drug specific for a particular protein, it may cause expression of various proteins in addition to RIP3. […] After whether RIP3 was expressed was determined, a cell viability assay was performed.

HT-29 cells = assay: Viability (MTT) of RIP3-silenced HT-29 cells treated with anticancer drug; format: cell-based, human; conditions: 48 hours
Procedure: In order to identify the role of RIP3 in anticancer drug sensitivity, the HT-29 cell line which is a representative cancer cell line expressing RIP3 was used. To identity the function of RIP3, RIP3 expression was inhibited using the shRNA system and analyzed by a Western blotting technique.
In the present invention, in order to examine whether the RIP3 gene is associated with anticancer drug sensitivity, HT-29 cells transfected with RIP3 shRNA were treated with varying concentrations of doxorubicin and etoposide, and then the cell viability of the cancer cells was measured. Particularly, HT-29 cells transfected with RIP3 shRNA were treated with 2.5 μM and 5 μM of doxorubicin and 50 μM and 100 μM of etoposide, and then incubated for 48 hours. After the medium was replaced with a fresh medium containing 0.1 mg of MTT (3-([4,5-dimethylthiazol-2-yl]-2,5-diphenyltetrazolium bromide), the cells were further incubated for 2 hours. Colorimetric analysis was performed on a precipitate obtained by reducing a tetrazolium salt, in which viable cells is dissolved, into a purple formazan crystal. Next, the medium was removed, and the produced formazan crystal was dissolved in 500 μl of DMSO, and the absorbance was measured using an ELISA reader at 570 nm. Cell viability was expressed as a percentage relative to the control taken as 100% viability.

[5] = system: RIP3 expression in non-target and shRIP3 cancer cell lines; assay: RIP3 expression in non-target and shRIP3 cell lines treated with 5-AD (Western blotting); format: cell-based, human; conditions: treated twice with 5-AD for 4 days
Procedure: as §2, with “μg/mL). At 2 days after infection, infected cells were selected with puromycin, and RIP3 knockdown was confirmed by immunoblotting. Cells without expression endogenous RIP3 were afterwards treated with 5-AD for 4 days and analyzed by immunoblotting.” for “μg/mL).”
Cells were lysed in M2 buffer.
as §3

[6] = system: MDA-MB231 breast cancer cell line tumors; assay: MDA-MB231 mouse xenograft model, combined treatment with 5-AD and Doxorubicin; format: in vivo, BALB/c nude mice
Procedure: In order to verify the sensitization effect induced by RIP3 expression in experimental animal models, the MDA-MB231 breast cancer cell line that expresses no RIP3 was injected into BALB/c nude mice to form tumors. Next, the mice were injected with 5-AD for 1 week, and then injected with Doxorubicin for 33 days, and a change in the volume of the tumor tissue was measured. […] In addition, the tumor tissue was isolated after the last drug treatment, and the mass thereof was measured. […] The tumor tissue subjected to combined treatment with 5-AD and Doxorubicin was prepared into a paraffin block which was then visualized by H&E staining, p-H2AX antibody staining, and TUNEL staining.

[7] = system: RIP3 expression in MDA-MB231 tumor tissue; assay: RIP3 expression in isolated xenograft tumor tissue (RT-PCR, IHC); format: in vivo, BALB/c nude mice; conditions: group treated with 5-AD
Procedure: Immunohistochemistry was performed using the UltraVision LP Detection System TL-060-HD (Thermo Scientific, Bioanalytica) according to the manufactures instructions. Thin paraffin sections (4.5 μm) were deparaffinized in xylene and rehydrated in a graded series of ethanol-aqueous solutions. Antigen retrieval was done by heating the slides for 15 min in a microwave oven in 10 mM citrate buffer (pH 6.0). Endogenous peroxidase activity was blocked by incubation in 3% hydrogen peroxide in TBS for 10 min, and then the sections were incubated overnight at 4° C. in 1:300 dilutions of anti-RIP3 antibody. Chromogen was developed for 5 min with 3,3′-diaminobenzidine (TL-015-HD, Them© Scientific, Bioanalytica, Greece) solution and counterstained with Meyer's hematoxylin. Immunohistochemical staining was evaluated based on the proportion of stained cells and immunostaining intensity. H-score used in the present invention was obtained by multiplying the proportion of stained cells (i) and staining intensity graded 0 (negative), 1 (weak), 2 (moderate), or 3 (strong). H-score ranged from 0 to 300. Staining was carried out for tumor and normal tissues for each sample for the same time. Staining was interpreted by an experienced pathologist blinded to the clinical data.
In addition, RNA was extracted from the isolated tumor tissue and subjected to RT-PCR. […]

[8] = anticancer drug in combined treatment with the demethylating agent (5-AD or 5-AZA)
[9] = non-target cell line, anticancer drug combined with demethylating agent (5-AD)
[10] = HT-29 control group, doxorubicin 2.5 and 5 μM, etoposide 50 and 100 μM
[11] = HT-29 with RIP3 knocked down with shRNA, versus control group

CC(=O)O[C@H]1C(=O)[C@@]2(C)[C@H]([C@H](OC(=O)c3ccccc3)[C@]3(O)C[C@H](OC(=O)[C@H](O)[C@@H](NC(=O)c4ccccc4)c4ccccc4)C(C)=C1C3(C)C)[C@]1(OC(C)=O)CO[C@@H]1C[C@@H]2O [Paclitaxel, paclitaxel]
sensitization to cell death [1, 8]: showed the effect of sensitizing the cancer cell lines to cell death
anticancer drug resistance (MTT assay) (T47D cells): significantly increased compared to that of the control group
cell death (MTT assay) (T47D cells): killed depending on the concentration

Nc1ncn([C@@H]2O[C@H](CO)[C@@H](O)[C@H]2O)c(=O)n1 [5-AZA, 5-azacytidine]
RIP3 expression [2]: RIP3 expression was induced
RIP3 expression ([3]; cancer cell lines of Example 3, treated twice for 4 days): induced RIP3 expression

COc1cccc2c1C(=O)c1c(O)c3c(c(O)c1C2=O)C[C@@](O)(C(=O)CO)C[C@@H]3O[C@H]1C[C@H](N)[C@H](O)[C@H](C)O1 [Doxorubicin, doxorubicin]
sensitization to cell death [1, 8]: showed the effect of sensitizing the cancer cell lines to cell death
sensitization to cell death [4, 9]: showed the effect of sensitizing the cancer cell line to cell line
cell viability (HT-29 cells; [10]): the cell viability decreased depending on the concentration
cell viability (HT-29 cells; [11]): the cell viability significantly increased compared to that of the control group
anticancer drug resistance (MTT assay) (T47D cells): significantly increased compared to that of the control group
cell death (MTT assay) (T47D cells): killed depending on the concentration

COc1cc([C@@H]2c3cc4c(cc3[C@@H](O[C@@H]3O[C@@H]5CO[C@@H](C)O[C@H]5[C@H](O)[C@H]3O)[C@H]3COC(=O)[C@H]23)OCO4)cc(OC)c1O [Etoposide, etoposide]
sensitization to cell death [1, 8]: showed the effect of sensitizing the cancer cell lines to cell death
sensitization to cell death [4, 9]: showed the effect of sensitizing the cancer cell line to cell line
cell viability (HT-29 cells; [10]): the cell viability decreased depending on the concentration
cell viability (HT-29 cells; [11]): the cell viability significantly increased compared to that of the control group
anticancer drug resistance (MTT assay) (T47D cells): significantly increased compared to that of the control group
cell death (MTT assay) (T47D cells): killed depending on the concentration

N.N.[Cl][Pt][Cl] [Cisplatin, cisplatin]
sensitization to cell death [1, 8]: showed the effect of sensitizing the cancer cell lines to cell death
sensitization to cell death [4, 9]: showed the effect of sensitizing the cancer cell line to cell line

Nc1ncn([C@H]2C[C@H](O)[C@@H](CO)O2)c(=O)n1 [5-AD, 5-aza-2′-deoxycytidine]
sensitization to cell death ([1]; cervical, breast, colorectal and bladder cancer cell lines treated with the anticancer drug after RIP3 induction by 5-AD): sensitized to cell death
RIP3 expression ([5]; non-target cell line): RIP3 expression was induced
RIP3 expression ([5]; shRIP3 cell line, Western blotting): RIP3 was not expressed
sensitization to cell death ([4]; shRIP3 cell line that expresses no RIP3, 5-AD combined with anticancer drug): the sensitization effect was inhibited
volume of the tumor tissue ([6]; 5-AD for 1 week then Doxorubicin for 33 days, combined treatment compared to Doxorubicin alone): significantly reduced
H&E staining, p-H2AX antibody staining and TUNEL staining of tumor tissue ([6]; combined treatment with 5-AD and Doxorubicin): the death of the cancer cells occurred by the combined treatment
mass of tumor tissue ([6]; tumor isolated after the last drug treatment, combined treatment with Doxorubicin and 5-AD): significantly reduced
RIP3 expression (RT-PCR) ([7]; RNA from isolated tumor tissue): increased
RIP3 expression (immunohistochemistry) ([7]; paraffin block of isolated tumor tissue): RIP3 expression was increased
RIP3 expression ([3]; cancer cell lines that expressed no RIP3, 5-AD 2 uM, treated twice for 4 days, Western blotting): RIP3 expression was induced

CC[C@@]1(O)C(=O)OCc2c1cc1n(c2=O)Cc2cc3ccccc3nc2-1 [CPT]
sensitization to cell death [1, 8]: showed the effect of sensitizing the cancer cell lines to cell death
sensitization to cell death [4, 9]: showed the effect of sensitizing the cancer cell line to cell line

O=C(O)C(Cc1c[nH]c2ccccc12)N1C(=O)c2ccccc2C1=O (stereo not shown) [RG108]
RIP3 expression [2]: RIP3 expression was induced

O=c1[nH]cc(F)c(=O)[nH]1 [5-FU]
sensitization to cell death [1, 8]: showed the effect of sensitizing the cancer cell lines to cell death
sensitization to cell death [4, 9]: showed the effect of sensitizing the cancer cell line to cell line

From patent US10921325B2, “Composition for anticancer adjuvant comprising RIP3 expression promoter as active ingredient, method for screening anticancer adjuvant which promotes RIP3 expression and enhances sensitivity of anticancer agent, and method for monitoring sensitivity of anticancer agent” (AJOU UNIVERSITY INDUSTRY-ACADEMIC COOPERATION FOUNDATION, priority 2015, dated 2021)
